Columns and labels:
cerebral blood flow = assay: Cerebral blood flow by cortical laser Doppler during intranasal nitric oxide in intubated rodents; assay type: in vivo; conditions: intranasal non-inhaled delivery, within 60 minutes
Protocol: (§1) In intubated rodents, the inventors have shown that cerebral blood flow increases by 100% within 60 minutes of intranasal nitric oxide delivery.

[1] = tested on: cerebral ischemia (carotid artery occlusion model); assay: Carotid artery occlusion model, Speckle laser Doppler, intubated rodents; assay type: in vivo; conditions: both during the carotid occlusion and following ligature release
Protocol: as §1

cerebral perfusion = assay: CT perfusion scanning before and after intranasal nitric oxide in intubated patients with focal cerebral ischemia; assay type: in vivo, human
[2] = Tolerability of intranasal nitric oxide in awake humans (normal volunteers); assay type: in vivo, human
Source text: While nitric oxide may be given intranasally and without inhalation into the lungs to intubated, comatose individuals the tolerability of intranasal nitric oxide in awake humans has not previously been investigated. The inventors have tested the effect of nitric oxide in humans (normal volunteers) during intranasal delivery. […] Therefore it can easily be tolerated by awake, non-intubated patients.

[N]=O [nitric oxide]
cerebral blood flow increase (cerebral blood flow): 100%
perfusion in the ischemic hemisphere [1]: perfusion is improved in the ischemic hemisphere
Cerebral Blood Flow, Changes in ACA Watershed (cerebral perfusion; Post Rx): Normalization,
Mean Transit Time, Changes in ACA Watershed (cerebral perfusion; Post Rx): Normalization
Cerebral Blood Flow, Changes in ACA Watershed: increase in perfusion on L (cerebral perfusion; Post Rx vs Pre Rx, left (ischemic) hemisphere): 67% increase in
Mean Transit Time, Right Hemisphere (normal) (cerebral perfusion; Post Rx, one hour of intranasal non-inhaled nitric oxide (Pre Rx 6)): 6.1 s
Mean Transit Time, Left Hemisphere (ischemic) (cerebral perfusion; Post Rx, one hour of intranasal non-inhaled nitric oxide (Pre Rx 10)): 6.0 s
Cerebral Blood Flow, Left Hemisphere (ischemic) (cerebral perfusion; Post Rx, one hour of intranasal non-inhaled nitric oxide (Pre Rx 31)): 52
Cerebral Blood Flow, Right Hemisphere (normal) (cerebral perfusion; Post Rx, one hour of intranasal non-inhaled nitric oxide (Pre Rx 49)): 45
cerebral perfusion during treatment (CT perfusion scanning) (cerebral perfusion; intubated patients with cerebral ischemia): augmentation of cerebral perfusion and normalization of regional perfusion abnormalities
tolerability of gas treatment ([2]; humans, high concentration, intra-nasally and without inhalation): tolerated at high concentration
sensation during intranasal delivery ([2]; normal volunteers, concentrations up to 100 PPM): does not elicit any sensation
